US20050209278A1, “Piperidinyl- and piperazinyl-sulfonylmethyl hydroxamic acids and their use as protease inhibitors” (priority 2002, published 2005)
Structures can show the parent of a compound that is named as a salt.

Each compound was assayed against T1, MMP-13 (Homo sapiens, UniProt P45452) (assay: In vitro MMP inhibition, IC50 determination (fluorogenic substrate I)). Conditions: values in parenthesis; 4 μM substrate I; room temperature.
T1 construct: made in house; host or cells: baculovirus / insect cells
Assay type: biochemical
Protocol: Several hydroxamic acids and salts thereof were analyzed in in vitro assays to determine their ability to inhibit the MMP cleavage of peptide substrates. […] and IC50 constants were calculated from the assayed hydroxamic acid-MMP interactions.
Human recombinant MMP-1, MMP-2, MMP-9, MMP-13, and MMP-14 were used in this assay. All enzymes were prepared in Assignee's laboratories following usual laboratory procedures. Protocols for the preparation and use of these enzymes are available in the scientific literature. See, e.g., Enzyme Nomenclature (Academic Press, San Diego, Calif., 1992) (and the citations therein). See also, Freije et al., “Molecular cloning and expression of collagenase-3, a novel human matrix metalloproteinase produced by breast carcinomas,” J Biol. Chem., 269(24), 16766-16773 (1994).
The MMP-13 was obtained as a proenzyme from a full-length cDNA clone using baculovirus, as described by V. A. Luckow, “Insect Cell Expression Technology,” Protein Engineering: Principles and Practice, pp. 183-218 (edited by J. L. Cleland et al., Wiley-Liss, Inc., 1996). The expressed proenzyme was first purified over a heparin agarose column, and then over a chelating zinc chloride column. The proenzyme was then activated by APMA for use in the assay. Further details on baculovirus expression systems may be found in, for example, Luckow et al., J. Virol., 67, 4566-79 (1993). See also, O'Reilly et al, Baculovirus Expression Vectors: A Laboratory Manual (W.H. Freeman and Co., New York, N.Y., 1992). See also, King et al., The Baculovirus Expression System: A Laboratory Guide (Chapman & Hall, London, England, 1992).
All MMPs were activated using 4-aminophenylmercuric acetate (“APMA”, Sigma Chemical, St. Louis, Mo.) or trypsin. MMP-9 also was activated using human recombinant MMP-3 (purified in Assignee's laboratory following standard cloning and purification techniques).
Two fluorogenic, methoxycoumarin-containing polypeptide substrates were used in the MMP inhibition assays: [drawing 427] Here, “Dpa” is 3-(2,4-dinitrophenyl)-L-2,3-diaminopropionyl group, and “MCA” is 7-methoxycoumarin-4-yl acetyl. Substrate (I) was purchased from Baychem (Redwood City, Calif.), and substrate II was prepared Assignee's laboratory. Substrate I was used in the IC50 determination assays, while substrate II was used in the Ki determination assays. In the absence of MMP inhibitory activity, either substrate is cleaved at the Gly-Leu peptide bond. This cleavage separates the highly fluorogenic peptide from the 2,4-dinitrophenyl quencher, thus resulting in increase of fluorescent intensity.
The stock solutions of the assayed hydroxamic acids (or salts thereof) were prepared in 1% dimethyl sulfoxide (DMSO). These stock solutions were diluted in Buffer A (100 mM Tris-HCl, 100 mM NaCl, 10 mM CaCl2, 0.05% polyoxyethylene 23 lauryl ether, pH 7.5) to obtain solutions with different hydroxamic acid concentrations, i.e., assay solutions with different concentrations of the assayed MMP inhibitory compound. The experiment controls contained the same amount of Buffer A/DMSO as the assayed sample, but contained no hydroxamic acid (or salt thereof).
The assays from which the IC50 determinations were made were performed as follows. The MMPs were activated with either trypsin or APMA (4-aminophenylmercuric acetate, Sigma Chemical, St. Louis, Mo.). The assayed hydroxamic acid samples were incubated in Microfluor™ White Plates (Dynatech, Chantilly, Va.) and analyzed on a Perkin Elmer L550 plate reader (Norwalk, Conn.). The excitation wavelength was 328 nm, and the emission wavelength—415 nm. All samples (assayed hydroxamic acids and controls) were incubated in separate plates at room temperature in the presence of 4 μM of MMP substrate (I). As stated in the previous paragraph, samples containing varying concentrations of the same assayed hydroxamic acid were prepared. Inhibition was measured as a reduction in fluorescent intensity as a function of MMP inhibitor concentration. […]

| Structure (SMILES) | IC50 [nM] |
| --- | --- |
| CCCCc1ccc(N2CCN(S(=O)(=O)C3(C(=O)NO)CCN(CCOC)CC3)CC2)cc1 [Example 5, 4-{[4-(4-butylphenyl)piperazin-1-yl]sulfonyl}-N-hydroxy-1-(2-methoxyethyl)piperidine-4-carboxamide Dihydrochloride] | < 0.1 |
| CCCCCc1ccc(N2CCN(S(=O)(=O)C3(C(=O)NO)CCN(CCOC)CC3)CC2)cc1 [Example 6, N-Hydroxy-1-(2-methoxyethyl)-4-{[4-(4-pentylphenyl)piperazin-1-yl]sulfonyl}piperidine-4-carboxamide Dihydrochloride] | 0.1 |
| O=C(NO)C1(S(=O)(=O)N2CCN(c3ccc(OCC4CC4)c(F)c3)CC2)CCN(C2CC2)CC1 [Example 10, 1-cyclopropyl-4-[[4-[4-(cyclopropylmethoxy)-3-fluorophenyl]-1-piperazinyl]sulfonyl]-N-hydroxy-4-piperidinecarboxamide, dihydrochloride] | 1.3 |
| CCCCOc1ccc(N2CCN(S(=O)(=O)C3(C(=O)NO)CCN(CCOC)CC3)CC2)cc1F [Example 11, 4-[[4-(4-butoxy-3-fluorophenyl)-1-piperazinyl]sulfonyl]-N-hydroxy-1-(2-methoxyethyl)-4-piperidinecarboxamide, Dihydrochloride] | 0.8 |
| CCCCCc1ccc(C2CCN(S(=O)(=O)C3(C(=O)NO)CCN(CCOC)CC3)CC2)cc1 [Example 15, N-hydroxy-1-(2-methoxyethyl)-4-{[4-(4-pentylpheyl)piperidin-1-yl]sulfonyl}piperidine-4-carboxamide Hydrochloride] | 0.1 |
